Several values for one entry are separate records, joined by “and”; a condition that tells them apart may be missing. Equal entries are not always repeated.
Assays:
[1] = test system: NO3 Reductase; assay: Nitrate reductase activity in extracts of treated corn root sections; assay type: cell-based, Corn (Pioneer Hybrid 3320); details: 50 ppm test compound
Protocol: (§1) Corn (Pioneer Hybrid 3320), wheat (Arther), sorghum (SC-599-6), barley (CM-721), rice (m101), and cotton (Tamcot SP-37) seeds were disinfected with a 1% sodium hypochlorite solution and placed in 20.3 cm×30.5 cm×5.1 cm Pyrex glass utility trays which were lined with 4 layers of bleached paper towels and irrigated with 150 mL of 0.2 mM CaCl2 solution. The trays were covered with plastic food wrap, perforated to permit air exchange, and placed in a dark growth room which was maintained at 30° and 90% relative humidity. About 48 hours later, another 150 mL of 0.2 mM CaCl2 solution was added to each tray to maintain water sauration of the paper towels.
(§2) Two centimeter root sections were cut 0.5 to 2.5 cm from the tip of 3-day-old etiolated seedling roots. Batches of 20 (for corn and cotton), or 40 (for wheat, barley and rice) root sections were tied in cheesecloth bags, leaving a 20-30 cm length of string to facilitate movement between test solutions. Root tissue was washed at 30±1° by immersing the cheesecloth bags in a well-aerated 0.2 mM K2 HPO4 /KH2 PO4 solution, pH 6.0, for 4 hours. During the last 30 minutes of this washing period, 1 mM potassium nitrate solution was introduced to induce nitrate reductase activity. For uniformity, 100 mL washing solution was used for every bag of root sections (about 300 mg fresh tissue).
Nitrate ion uptake into corn roots was also determined by homogenizing root segments previously exposed to the nitrate absorption solution (without added ^36 ClO3⊖) with a precooled glass homogenizer in 5 mL of cold extraction medium. This medium contained 23 mM phosphate buffer pH 8.8, 5 mM cysteine, 2.5 mM EDTA, and 0.1% Neutronyx 600 (Onyx Chemical Co., Jersey City, N.J.). The resulting homogenate was centrifuged at 30,000 xg for 15 minutes, and an aliquot of the resulting supernatant solution reserved for nitrate ion determination, using an Orion nitrate ion specific electrode. […]
Nitrate reductase activity was determined using a modification of the procedure of Hageman and Huckles- by, Methods Enzymol. […]

[2] = test system: corn root sections; assay: Nitrate ion uptake by corn root sections (nitrate ion specific electrode); assay type: cell-based, Corn (Pioneer Hybrid 3320); details: for Ion Uptake (percent increase over control) NO3-: 50 ppm test compound, corn root sections
Protocol: as §1, §2
Nitrate ion uptake into corn roots was also determined by homogenizing root segments previously exposed to the nitrate absorption solution (without added ^36 ClO3⊖) with a precooled glass homogenizer in 5 mL of cold extraction medium. This medium contained 23 mM phosphate buffer pH 8.8, 5 mM cysteine, 2.5 mM EDTA, and 0.1% Neutronyx 600 (Onyx Chemical Co., Jersey City, N.J.). The resulting homogenate was centrifuged at 30,000 xg for 15 minutes, and an aliquot of the resulting supernatant solution reserved for nitrate ion determination, using an Orion nitrate ion specific electrode. The same tissue extract was used for nitrate reductase activity determination (below).
(§3) Test compounds are identified in Table I by Example number, and by the identity of substituents X, Y, Z and R in the following formula: [drawing 23]

[3] = test system: corn plants; assay: Greenhouse test, growth of nitrate-deficient corn plants; assay type: in vivo; details: spray containing 50 ppm; 2-week old corn plants deficient in nitrate ion
Protocol: Greenhouse tests were conducted by germinating corn seeds in a 25.4 cm pot containing a commercial potting soil mixture. After two weeks, seedlings were culled, leaving two plants in each pot. Distilled water was applied to maintain moisture levels and to leach carry-over nutrients from the potting soil mixtures. The remaining corn plants were randomized and divided into several groups for testing. Each test plant received a single 10 ml application of a test compound at 50 ppm, which was applied from a hand-held air-pressurized sprayer while the plant was rotated on a turntable in a spray hood. Each test compound was dissolved in a solution containing 50% (by volume) water and 50% AGWT diluent. AGWT diluent contains acetone, glycerol, water and polyoxyethylene sorbitan monolaurate in a volumetric ratio of 459:20:500:1. 250 mL of a complete, nitrate ion-free, potassium ion-free, and phosphate ion-free Hoagland nutrient solution were added to each pot twice weekly. This nutrient solution was supplemented with distilled water to maintain proper soil moisture. […] Plants were allowed to grow to maturity and yields were measured at the conclusion of each test.

[4] = test system: corn root sections; assay: Nitrate ion uptake by corn root sections measured with radioactive chlorate ion (36ClO3-) as mimic; assay type: cell-based, Corn (Pioneer Hybrid 3320); details: 50 ppm test compound; for activation at 50 ppm: Zea mays, read-out: Ion Uptake (percent increase over control) 36ClO3-
Protocol: as §1, §2
Nitrate ion uptake was measured using radioactive chlorate ion (^36 ClO3⊖) as a mimic for nitrate ion (Deane-Drummond et al., Plant Physiol. 70:50-54 (1982)). Uptake was measured by incubating 20 or 40 cheesecloth-bound washed root segments for 30 minutes in 100 mL absorption solution. The absorption solution contained 0.5 mM potassium nitrate, 0.2 mM calcium chloride, 5 mM MES buffer, and 5 mg/L sodium molybdate. This solution was adjusted to pH 6 with potassium hydroxide, and labeled with 10,000 cpm/ml of carrier-free radioactive chlorate ion. Absorption temperatures was maintained at 30±1° in a water bath, and moderate aeration was provided. All test compounds were added to the absorption solution. After the absorption period, the cheesecloth bag containing root sections was rinsed with distilled water for 10 seconds and then immersed in 100 mL of ice-cold, aerated 0.2 mM calcium chloride solution for 20 minutes to remove exchangeable components of absorbed ^36 ClO3⊖. Root sections were then removed from the cheesecloth bags, blotted dry, placed in a preweighed scintillation vial, and weighed to determine fresh tissue weight. One mL water and 10 mL Scinti Verse I (Fisher Scientific Co.) scintillation fluid were added, and radioactivity determined by scintillation counting. The rate of nitrate (^36 ClO3⊖) uptake in micromols per gram fresh weight of tissue per hour was calculated.
as §3

[5] = test system: corn root sections; assay: Ammonium ion uptake by corn root sections (ammonium ion-specific electrode); assay type: cell-based, Corn (Pioneer Hybrid 3320); details: 50 ppm test compound
Protocol: as §1
Two centimeter root sections were cut 0.5 to 2.5 cm from the tip of 3-day-old etiolated seedling roots. Batches of 20 (for corn and cotton), or 40 (for wheat, barley and rice) root sections were tied in cheesecloth bags, leaving a 20-30 cm length of string to facilitate movement between test solutions. Root tissue was washed at 30±1° by immersing the cheesecloth bags in a well-aerated 0.2 mM K2 HPO4 /KH2 PO4 solution, pH 6.0, for 4 hours. […]
Ammonium ion uptake was determined by measuring the disappearance of ammonium ion from an uptake solution containing 1 mmol ammonium chloride, 0.2 mM calcium chloride and 5 mM MES buffer, pH 6.0, with an Orion ammonium ion-specific electrode. […]

[6] = pKa; assay type: physicochemical; details: two values given
[7] = test system: corn plants; assay: Field test, grain yield of nitrogen-stressed corn; assay type: in vivo, corn (Pioneer Hybrid 3535)
Protocol: Field tests were conducted by seeding corn (Pioneer Hybrid 3535) at a rate sufficient to obtain an excess plant population. The resulting population was thinned after emergence, 14 days after planting, to a density of about 64,000 plants per hectare, with plants about 20 cm apart in each row. The test population was subjected to severe nitrogen stress during development because only 67 kg nitrogen/hectare (60 lb/acre) were applied at planting. Nitrogen stress symptoms were apparent on lower plant leaves 32 days after emergence. Test compounds were applied to plants 34 days after emergence and 26 days prior to anthesis. Average canopy height at time of treatment was 85 cm. The treatments were applied from an acetone/water (1:3) solution with 0.2% added nonionic surfactant, using a hand-held nitrogen-pressurized sprayer. One day following treatment, an application of about 34 kg/ha (30 lb/acre) ammonium nitrate was broadcast on the ground and immediately worked into the root zone by irrigation.

[8] = test system: wheat root sections; assay: Nitrate ion uptake by plant root sections, wheat; assay type: cell-based, wheat (Arther)
Protocol: as §1
(§4) Two centimeter root sections were cut 0.5 to 2.5 cm from the tip of 3-day-old etiolated seedling roots. […]
(§5) Nitrate ion uptake was measured using radioactive chlorate ion (^36 ClO3⊖) as a mimic for nitrate ion (Deane-Drummond et al., Plant Physiol. 70:50-54 (1982)). Uptake was measured by incubating 20 or 40 cheesecloth-bound washed root segments for 30 minutes in 100 mL absorption solution. […] One mL water and 10 mL Scinti Verse I (Fisher Scientific Co.) scintillation fluid were added, and radioactivity determined by scintillation counting. The rate of nitrate (^36 ClO3⊖) uptake in micromols per gram fresh weight of tissue per hour was calculated.

[9] = test system: barley root sections; assay: Nitrate ion uptake by plant root sections, barley; assay type: cell-based, barley (CM-721)
Protocol: as §1, §4, §5

[10] = test system: sorghum root sections; assay: Nitrate ion uptake by plant root sections, sorghum; assay type: cell-based, sorghum (SC-599-6)
Protocol: as §1, §4, §5

[11] = test system: rice root sections; assay: Nitrate ion uptake by plant root sections, rice; assay type: cell-based, rice (m101)
Protocol: as §1, §4, §5

[12] = test system: cotton root sections; assay: Nitrate ion uptake by plant root sections, cotton; assay type: cell-based, cotton (Tamcot SP-37)
Protocol: as §1, §4, §5

With `CC(C)C[C@@H](CO)NC(=O)[C@@H]1CCCN1C(=O)OCc1ccccc1` [Example 1, N-Carbobenzoxy-L-prolyl-L-leucinol] the “NO3- Reductase (percent increase over control)” value [1] was -1%, the “Ion Uptake (percent increase over control) NO3-” value [2] was 40% and the “Growth of corn plants” value [3] was “stimulated growth”. The activation at 50 ppm [4] was 26% and the “Ion Uptake (percent increase over control) NH4+” value [5] was 80%.

Molecule `CC(C)[C@@H](CO)NC(=O)[C@@H]1CCCN1C(=O)OCc1ccc(Cl)cc1` [Example 16, N-(p-Chlorobenzyloxycarbonyl) -L-prolyl-L-valinol] has an activation at 50 ppm [4] of 14%.

With `O=C(NCCO)[C@@H]1CCCN1C(=O)OCc1ccccc1` [Example 4, N-Carbobenzoxy-L-prolyl-(β-hydroxyethyl)amide] the “NO3- Reductase (percent increase over control)” value [1] was 4%, the “Ion Uptake (percent increase over control) NO3-” value [2] was 30% and the “Ion Uptake (percent increase over control) 36ClO3-” value [4] was 24%.

`CC(C)[C@H](CO)NC(=O)[C@@H]1CCCN1C(=O)OCc1ccccc1` [Example 8, N-Carbobenzoxy-L-prolyl-D-Valinol] gave an activation at 50 ppm [4] of 12%.

In the case of `CC(C)[C@@H](CO)NC(=O)[C@@H]1CCCN1C(=O)OCc1ccc(F)cc1` [Example 15, N-(4-Fluorobenzyloxycarbonyl)-L-prolyl-L-valinol], the “Ion Uptake (percent increase over control) NO3-” value [2] is reported as 30% and the activation at 50 ppm [4] is reported as 35%.

With `CC(C)[C@H](CO)NC(=O)[C@H]1CCCN1C(=O)OCc1ccccc1` [Example 10, N-Carbobenzoxy-D-prolyl-D-valinol] the “Ion Uptake (percent increase over control) NO3-” value [2] was 36% and the activation at 50 ppm [4] was 41%.

For `O=C(O)[C@H]1COCN1C(=O)OCc1ccccc1` [3-Carbobenzoxy oxazolidine-4R-carboxylic acid], the pKa [6] was 3.80 and 3.90.

In the case of `CC(C)[C@@H](CO)NC(=O)[C@@H]1CCCN1C(=O)OCc1ccccc1` [Example 2, N-Carbobenzoxy-L-prolyl-L-valinol], the “Grain yield (average)” value ([7]; second round of field tests, 0.035, 0.07 and 0.14 kg/ha, controls average 321) is reported as 348 bushels/ha, the “Increase in grain yield” value ([7]; second round of field tests, application rates 0.035, 0.07 and 0.14 kg/ha, all three) is reported as 8-10% and the Grain yield ([7]; sprayed with 500 ppm (0.14 kg/ha), field grown corn, control 232) is reported as 248 bushels/ha. For the same molecule, the “Increase in grain yield” value ([7]; sprayed with 500 ppm (0.14 kg/ha), field grown corn, p=0.05, vs. control) was 6.3%, the “NO3- Reductase (percent increase over control)” value [1] was 7% and the “Nitrate Ion Uptake (percent increase over control)” value ([8]; Wheat root sections, 50 ppm) was 55%. The “Nitrate ion uptake enhancement, in words” value ([8]; wheat) was “Significant stimulation”, the “Nitrate Ion Uptake (percent increase over control)” value ([9]; Barley root sections, 50 ppm) was 75% and the “Nitrate ion uptake enhancement, in words” value ([9]; barley) was “Significant stimulation”. For the same molecule, the “Ion Uptake (percent increase over control) NO3-” value [2] was 65%, the “Nitrate Ion Uptake (percent increase over control)” value ([2]; Corn root sections, 50 ppm) was 65% and the “Nitrate ion uptake enhancement, in words” value ([2]; corn) was “Significant stimulation”. The “Optimal media concentration for stimulation of nitrate ion uptake” value ([2]; immersed corn root sections, varying test concentrations) was “about 50 ppm”, the “Nitrate Ion Uptake (percent increase over control)” value ([10]; Sorghum root sections, 50 ppm) was -5% and the “Nitrate ion uptake enhancement, in words” value ([10]; sorghum root tissues) was “insensitive”. For the same molecule, the activation at 50 ppm [4] was 56%, the “Nitrate Ion Uptake (percent increase over control)” value ([11]; Rice root sections, 50 ppm) was 10% and the “Nitrate ion uptake enhancement, in words” value ([11]; rice root tissues) was “insensitive”. The “Nitrate Ion Uptake (percent increase over control)” value ([12]; Cotton root sections, 50 ppm) was -10%, the “Nitrate ion uptake enhancement, in words” value ([12]; cotton root tissues) was “insensitive” and the “Ion Uptake (percent increase over control) NH4+” value [5] was 100%.

In the case of `CC(C)[C@@H](CO)NC(=O)[C@@H]1COCN1C(=O)OCc1ccccc1` [Example 12, N-Carbobenzoxy-L-γ-oxaprolyl-L-valinol], the “Ion Uptake (percent increase over control) 36ClO3-” value [4] is reported as 18%.

For `C[C@H]1OCN(C(=O)OCc2ccccc2)[C@@H]1C(=O)O` [3-carbobenzoxy-5R-methyloxazolidine-4S-carboxylic acid], the pKa [6] was 4.65 and 4.60.

Molecule `C[C@@H](CO)NC(=O)[C@@H]1CCCN1C(=O)OCc1ccccc1` [Example 5, N-Carbobenzoxy-L-prolyl-L-alaninol] has an activation at 50 ppm [4] of 20%.

With `CC(C)[C@@H](CO)NC(=O)[C@H]1CCCN1C(=O)OCc1ccccc1` [Example 9, N-Carbobenzoxy-D-prolyl-L-valinol] the activation at 50 ppm [4] was 37%.

For `CC[C@@H](CO)NC(=O)[C@@H]1CCCN1C(=O)OCc1ccccc1` [Example 6, N-Carbobenzoxy-L-prolyl-L-homoalaninol], the “Ion Uptake (percent increase over control) NO3-” value [2] was 24% and the activation at 50 ppm [4] was 20%.

For `O=C(O)[C@@H]1COCN1C(=O)OCc1ccccc1` [3-Carbobenzoxyoxazolidine-4S-carboxylic acid], the pKa [6] was 4.35 and 4.30.

With `CC[C@H](CO)NC(=O)[C@@H]1CCCN1C(=O)OCc1ccccc1` [Example 7, N-Carbobenzoxy-L-prolyl-D-homoalaninol] the “Ion Uptake (percent increase over control) NO3-” value [2] was 41% and the activation at 50 ppm [4] was 40%.

In the case of `Cc1ccc(COC(=O)N2CCC[C@H]2C(=O)N[C@H](CO)C(C)C)cc1` [Example 17, N-(p-Methylbenzyloxycarbonyl) -L-prolyl-L-valinol], the “Ion Uptake (percent increase over control) NO3-” value [2] is reported as 39% and the activation at 50 ppm [4] is reported as 35%.

For `CC(C)[C@@H](CO)NC(=O)[C@@H]1[C@@H](C)OCN1C(=O)OCc1ccccc1` [Example 13, N-Carbobenzoxy-5R-methyloxazolidine-4S-carbonyl-L-valinol], the “Ion Uptake (percent increase over control) 36ClO3-” value [4] was 20%.
